Results reported in the NIST ThermoML archive (doi:10.1016/j.fluid.2016.01.035).
Numbers after ± are expanded uncertainties.

How the values were obtained:
[1] = for vapor or sublimation pressure: Liquid, Transpiration method
[2] = Molar enthalpy of transition or fusion; conditions: Crystal; DSC
[3] = molar enthalpy of vaporization or sublimation; conditions: 298.15 K; Crystal; TGA

Normal melting temperature ([1]; Crystal, DTA) [°C]	Molar enthalpy of transition or fusion [2] [kcal/mol]	molar enthalpy [3] [kcal/mol]	vapor or sublimation pressure ([1]; 340.2 K) [kPa]	vapor or sublimation pressure ([1]; 343.2 K) [kPa]	vapor or sublimation pressure ([1]; 348.2 K) [kPa]	vapor or sublimation pressure ([1]; 353.1 K) [kPa]	vapor or sublimation pressure ([1]; 358.2 K) [kPa]	vapor or sublimation pressure ([1]; 363.2 K) [kPa]	vapor or sublimation pressure ([1]; 368.1 K) [kPa]	vapor or sublimation pressure ([1]; 370.2 K) [kPa]	vapor or sublimation pressure ([1]; 373.2 K) [kPa]	vapor or sublimation pressure ([1]; 376.2 K) [kPa]	SMILES
172.8 ± 0.5	8.29 ± 0.191	32.4 ± 0.478	–	–	–	–	–	–	–	–	–	–	COc1cc(C=CC(=O)O)ccc1O [4-hydroxy-3-methoxycinnamic acid]
–	5.62 ± 0.55	–	9.7e-05 ± 4e-06	0.000128 ± 6e-06	0.00021 ± 9e-06	0.000324 ± 1.4e-05	0.000513 ± 2.2e-05	0.000769 ± 3.3e-05	0.00117 ± 5e-05	0.0014 ± 6e-05	0.00179 ± 8e-05	0.00229 ± 0.0001	COC(=O)C=Cc1ccc(O)c(OC)c1 [methyl 3-(4-hydroxy-3-methoxyphenyl)-2-propenoate]
